Structures can show the parent of a compound that is named as a salt. A value given as a limit tells only on which side of the number the result lay.

A short description of data set [1]: Liver microsome stability, human. As to conditions: both sexes; human liver microsomes, 1 μM compound, 0.5 mg/ml microsomal protein, 37° C., 2 mM NADPH. It counts as in vitro ADME, Human (pooled male and female). The protocol: The stability of the title compound in the presence of liver microsomes was tested at 1 μM compound and 0.5 mg/ml rat or human microsomal protein, at 37° C. with 2 mM NADPH (standard in vitro screening concentrations). […] The “t1/2” values are the maximum time employed for the respective assays.

The subject of data set [2] is mice fed high fat diet (HFD). The data set can be described thus: Blood glucose after glucose administration in overnourished mice (Example 10). It counts as in vivo, C57BL/6J mice. The following applies: 10 μg/mL in drinking water, FIG. 7. An excerpt: Twenty-four C57BL/6J mice 8-weeks old were fed with either regular CHOW diet or high fat diet (HFD, 60% of fat content). Eight animals received CHOW diet for one week, 8 animals had been fed already with HFD for two weeks and were continuously fed with the same diet for one more week (for a total of 3 weeks feeding) and 8 animals started HFD at the time of the animal selection (2 weeks feeding). Each group was divided in half, 4 animals received regular water and the other 4 received the (S)-2-amino-6-((3-aminopropyl)amino)hexanoic acid dihydrochloride (10 μg/mL) dissolved in the water. Animals were fasted for 5 hours, weighed, and blood glucose measured by tail clipping. In addition, glucose (1 mg/g of body weight) was administered intraperitoneally. Additional glucose levels were measured at 20, 40 and 80 minutes after glucose administration. Heavy glucose was also administered intraperitoneally to further measure glucose uptake from tissues. Glucose level was taken again at 140 minutes. Animals were euthanized under anesthesia (isoflurane), and blood, liver, fat and muscle were collected.

In a further data set the test system is GLUT4. The data set can be described thus: GLUT4 carbonylation in adipose tissue of HFD mice by MRM. It counts as in vivo, C57BL/6J mice. As to conditions: about 10 mg/kg per day in water, two weeks, n=8, P<0.02, FIG. 8A. An excerpt: MRM-MS is a quantitative mass spectrometry-based target technology that generates unique fragment ions associated with their corresponding precursor ions. These ions can be detected and quantified in complex matrix samples. The quantitation of peptides is obtained measuring the intensity of the fragment ions. To detect carbonylated GLUT4, specific peptides were selected. The parent ion for the carbonylated GLUT4 sequence LTGWADVSGVLAELKDEK-4HNE (SEQ ID NO:2) with triple charge mass is 696.381 m/z. After fragmentation of the parent ion, relative daughter ions: 1101.94, 788.4758, 917.5138, 988.5555, 722.4186, and 481.9482 m/z were identified and used for the quantification of the carbonylated Glut 4 peptide. […] This internal standard peptide allows a relative quantification because it is used for normalization of the intensity of each GLUT4 peptide within the same sample.
MRM analyses were performed with a DIONEX UltiMate™ 3000 SRLCnano HPLC system (Thermo Scientific) coupled to a TSQ QUANTUM™ ULTRA (Thermo Scientific) triple quadrupole. PINPOINT™ software was used for method development and the optimization of the mass spectrometer parameters, as well as for peptide quantification. […]
Thirty-two C57BL/6J mice 8-weeks old were selected and randomly separated. […] Glucose levels were measured at 20, 40, 80 and 140 minutes after glucose administration in a glucose time test (GTT). […]

In the case of `NCCCNCCCC[C@H](N)C(=O)O` [APL, (S)-2-amino-6-((3-aminopropyl)amino)hexanoic acid dihydrochloride], in data set [1], the half-life at 1 μM is greater than 1 h and the microsomal CLint at 1 μM is less than 23 µL/min/mg. Further, the “glucose uptake impairment induced by overnutrition (blood glucose levels)” value in data set [2] is on record as “effective in counteracting glucose uptake impairment induced by overnutrition”. Besides, the “reduction of GLUT4 carbonylations in adipose tissue” value in the data set with GLUT4 is listed as “about 50%”.
